For series [1] the following is noted: 298.15 K; 101.33 kPa; Liquid; Vibrating tube method.
Series [2] in a line: xn = mol fraction of the nth substance listed. The note with it: 298.15 K, 101 kPa, Liquid, Vibrating tube method.

Mass density data for eight compounds are collected here from the NIST ThermoML archive (doi:10.1021/je2011314).

Structures are written as SMILES. ± gives the expanded uncertainty stated by the source.

Usually mass density stands for the mass of a sample divided by its volume. Consider `CC(C)CC(C)(C)C` [2,2,4-trimethylpentane], for which the mass density in series [1] amounted to 687.62 ± 0.62 kg/m3.

For `COC(C)(C)C` [2-methoxy-2-methylpropane], the mass density in series [1] came out at 735.21 ± 0.62 kg/m3.

As for `COC(C)(C)C` [2-methoxy-2-methylpropane] + CC(C)CC(C)(C)C, the mass density in series [2] (x2 = 0.2997) turned out to be 716 ± 0.17 kg/m3; in series [2] (x2 = 0.3004), 715.84 ± 0.17 kg/m3; in series [2] (x2 = 0.3012), 715.86 ± 0.17 kg/m3; in series [2] (x2 = 0.5018), 705.83 ± 0.18 kg/m3; in series [2] (x2 = 0.5019), 705.9 ± 0.18 kg/m3; in series [2] (x2 = 0.5037), 705.72 ± 0.18 kg/m3. The mass density in series [2] (x2 = 0.6707) was determined as 698.67 ± 0.18 kg/m3; in series [2] (x2 = 0.7056), 697.4 ± 0.18 kg/m3; in series [2] (x2 = 0.7134), 697.17 ± 0.18 kg/m3.

`CC(C)OC(C)C` [diisopropyl ether]: in series [1], the mass density came out at 718.24 ± 0.64 kg/m3.

As to `CC(C)OC(C)C` [diisopropyl ether] + CC(C)CC(C)(C)C, the mass density came out at 706.86 ± 0.22 kg/m3 in series [2] (x2 = 0.3056); 706.7 ± 0.22 kg/m3 in series [2] (x2 = 0.3066); 700.59 ± 0.21 kg/m3 in series [2] (x2 = 0.5009); 700.42 ± 0.21 kg/m3 in series [2] (x2 = 0.5027); 700.41 ± 0.21 kg/m3 in series [2] (x2 = 0.5046); 694.83 ± 0.19 kg/m3 in series [2] (x2 = 0.7004). In addition, the mass density in series [2] (x2 = 0.7009) and in series [2] (x2 = 0.7025) was 694.86 ± 0.19 kg/m3 each time.

In the case of `CCO` [ethanol], in series [1], the mass density was found to be 785.31 ± 0.62 kg/m3.

As to `CO` [methanol], in series [1], the mass density turned out to be 786.56 ± 0.61 kg/m3.

For the compound `CCCO` [propan-1-ol], in series [1], the mass density is 799.7 ± 0.62 kg/m3.
